Structures are written as SMILES. Bounds are passed on as bounds.

This note sets out measurements from ChEMBL document CHEMBL5465560, “Selectivity Literature for EUbOPEN Chemogenomic Library” (2024).

The target of test [1] is T1, Aurora kinase A (Homo sapiens) (UniProt O14965).
T1 sequence (whole entry): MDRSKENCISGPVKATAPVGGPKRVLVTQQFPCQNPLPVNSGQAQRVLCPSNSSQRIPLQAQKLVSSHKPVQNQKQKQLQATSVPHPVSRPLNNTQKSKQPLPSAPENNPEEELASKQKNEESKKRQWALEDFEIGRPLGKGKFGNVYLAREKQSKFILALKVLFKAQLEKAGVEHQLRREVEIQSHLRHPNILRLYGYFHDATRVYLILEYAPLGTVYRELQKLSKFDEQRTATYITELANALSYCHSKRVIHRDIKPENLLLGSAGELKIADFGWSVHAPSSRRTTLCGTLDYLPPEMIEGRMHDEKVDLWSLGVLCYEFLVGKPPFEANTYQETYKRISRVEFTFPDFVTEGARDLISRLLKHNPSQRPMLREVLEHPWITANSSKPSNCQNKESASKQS
Kind of test: Selectivity interaction (Kinase panel (DSF assay)) EUB0001489b STK6. For orientation: DSF heats the sample and reads unfolding from a dye or from intrinsic fluorescence.

The target of test [2] is Ribosomal protein S6 kinase alpha-6 (Homo sapiens, UniProt Q9UK32). Nature of the test: Selectivity interaction (Kinase panel (Z-LYTE Assay)) EUB0001632a RPS6KA6. To be noted: at 10 µM.
Test [3] has as its target Mitogen-activated protein kinase 10 (Homo sapiens, UniProt P53779). Nature of the test: Selectivity interaction (Kinase panel (Z-LYTE Assay)) EUB0001632a MAPK10. Particulars: at 10 µM.
The target in test [4] is Histone-lysine N-methyltransferase SETD2 (Homo sapiens) (UniProt Q9BYW2). Kind of test: Selectivity interaction (Methyltransferase screen (Scintillation proximity assays)) EUB0000255b SETD2. For orientation: In a scintillation proximity assay essentially only radioactivity close to the scintillant gives light.
Chain of Histone-lysine N-methyltransferase SETD2 (Homo sapiens) (Q9BYW2 whole entry): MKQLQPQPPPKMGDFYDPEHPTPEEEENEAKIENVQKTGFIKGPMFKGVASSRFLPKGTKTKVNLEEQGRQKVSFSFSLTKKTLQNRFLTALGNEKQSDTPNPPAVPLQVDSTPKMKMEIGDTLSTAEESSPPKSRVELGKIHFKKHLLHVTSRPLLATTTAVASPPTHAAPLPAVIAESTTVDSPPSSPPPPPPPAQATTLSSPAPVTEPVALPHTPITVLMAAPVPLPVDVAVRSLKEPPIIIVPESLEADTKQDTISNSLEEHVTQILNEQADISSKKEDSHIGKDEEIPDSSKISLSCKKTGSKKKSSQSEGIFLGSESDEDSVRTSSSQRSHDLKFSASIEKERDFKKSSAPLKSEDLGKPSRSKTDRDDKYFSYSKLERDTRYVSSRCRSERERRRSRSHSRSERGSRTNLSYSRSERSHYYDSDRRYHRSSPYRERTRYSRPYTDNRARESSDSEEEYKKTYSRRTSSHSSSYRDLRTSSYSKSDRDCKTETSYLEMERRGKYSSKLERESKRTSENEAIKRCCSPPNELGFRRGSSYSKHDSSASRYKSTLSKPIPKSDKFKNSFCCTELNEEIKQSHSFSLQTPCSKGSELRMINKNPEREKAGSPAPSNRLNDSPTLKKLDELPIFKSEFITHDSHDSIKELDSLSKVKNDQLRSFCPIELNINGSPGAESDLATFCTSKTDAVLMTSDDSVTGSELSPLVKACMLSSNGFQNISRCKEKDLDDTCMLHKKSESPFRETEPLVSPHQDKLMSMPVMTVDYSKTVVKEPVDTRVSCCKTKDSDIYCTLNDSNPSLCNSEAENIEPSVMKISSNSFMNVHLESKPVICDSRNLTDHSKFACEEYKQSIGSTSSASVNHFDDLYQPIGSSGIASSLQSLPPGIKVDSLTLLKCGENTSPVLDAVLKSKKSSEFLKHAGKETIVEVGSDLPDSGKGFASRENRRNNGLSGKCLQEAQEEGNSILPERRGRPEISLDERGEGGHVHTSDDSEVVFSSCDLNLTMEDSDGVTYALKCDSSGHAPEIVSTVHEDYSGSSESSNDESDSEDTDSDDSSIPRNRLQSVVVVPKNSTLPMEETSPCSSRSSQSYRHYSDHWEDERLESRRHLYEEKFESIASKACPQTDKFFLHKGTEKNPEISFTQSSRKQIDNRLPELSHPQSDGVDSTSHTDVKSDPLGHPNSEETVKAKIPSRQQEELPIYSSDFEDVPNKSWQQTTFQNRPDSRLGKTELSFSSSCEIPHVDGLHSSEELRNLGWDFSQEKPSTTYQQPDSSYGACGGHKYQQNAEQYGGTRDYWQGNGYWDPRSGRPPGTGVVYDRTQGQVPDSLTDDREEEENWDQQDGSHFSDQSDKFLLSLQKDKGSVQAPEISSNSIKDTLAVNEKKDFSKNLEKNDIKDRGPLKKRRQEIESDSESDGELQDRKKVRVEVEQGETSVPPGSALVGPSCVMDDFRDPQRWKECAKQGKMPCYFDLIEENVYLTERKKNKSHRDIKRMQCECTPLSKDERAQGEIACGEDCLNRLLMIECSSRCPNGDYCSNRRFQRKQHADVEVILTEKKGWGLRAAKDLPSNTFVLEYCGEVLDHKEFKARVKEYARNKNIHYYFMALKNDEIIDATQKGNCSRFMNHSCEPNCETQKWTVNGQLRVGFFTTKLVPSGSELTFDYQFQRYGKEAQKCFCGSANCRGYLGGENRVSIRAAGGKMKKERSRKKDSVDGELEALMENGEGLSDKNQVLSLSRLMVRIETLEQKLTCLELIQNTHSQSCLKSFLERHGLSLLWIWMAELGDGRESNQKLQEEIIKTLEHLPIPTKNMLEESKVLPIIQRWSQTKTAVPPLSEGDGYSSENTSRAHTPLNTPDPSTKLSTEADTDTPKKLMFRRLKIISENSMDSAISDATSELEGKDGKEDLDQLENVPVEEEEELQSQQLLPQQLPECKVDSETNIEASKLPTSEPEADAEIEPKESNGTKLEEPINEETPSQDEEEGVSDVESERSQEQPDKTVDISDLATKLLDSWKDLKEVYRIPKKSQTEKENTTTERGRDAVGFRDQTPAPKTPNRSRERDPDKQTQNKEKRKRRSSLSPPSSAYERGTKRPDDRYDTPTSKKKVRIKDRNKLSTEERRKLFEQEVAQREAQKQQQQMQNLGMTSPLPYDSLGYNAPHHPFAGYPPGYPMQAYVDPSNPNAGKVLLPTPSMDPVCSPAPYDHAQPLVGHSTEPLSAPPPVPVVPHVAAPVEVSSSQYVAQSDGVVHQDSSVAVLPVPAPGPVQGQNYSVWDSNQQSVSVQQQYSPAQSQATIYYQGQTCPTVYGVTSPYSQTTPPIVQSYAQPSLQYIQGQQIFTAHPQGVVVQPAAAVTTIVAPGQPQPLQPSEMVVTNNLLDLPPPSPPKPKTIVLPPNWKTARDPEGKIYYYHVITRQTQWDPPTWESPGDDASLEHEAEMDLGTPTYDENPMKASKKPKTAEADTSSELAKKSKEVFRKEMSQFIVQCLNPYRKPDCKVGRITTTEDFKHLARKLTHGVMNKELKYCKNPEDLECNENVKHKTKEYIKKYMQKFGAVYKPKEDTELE
The target of test [5] is Serine/threonine-protein kinase VRK2 (Homo sapiens) (UniProt Q86Y07). Nature of the test: Selectivity interaction (KinomeScan (DiscoverX)) EUB0001619a VRK2. Particulars: at 1 µM.
Chain of Serine/threonine-protein kinase VRK2 (Homo sapiens) (Q86Y07 whole entry): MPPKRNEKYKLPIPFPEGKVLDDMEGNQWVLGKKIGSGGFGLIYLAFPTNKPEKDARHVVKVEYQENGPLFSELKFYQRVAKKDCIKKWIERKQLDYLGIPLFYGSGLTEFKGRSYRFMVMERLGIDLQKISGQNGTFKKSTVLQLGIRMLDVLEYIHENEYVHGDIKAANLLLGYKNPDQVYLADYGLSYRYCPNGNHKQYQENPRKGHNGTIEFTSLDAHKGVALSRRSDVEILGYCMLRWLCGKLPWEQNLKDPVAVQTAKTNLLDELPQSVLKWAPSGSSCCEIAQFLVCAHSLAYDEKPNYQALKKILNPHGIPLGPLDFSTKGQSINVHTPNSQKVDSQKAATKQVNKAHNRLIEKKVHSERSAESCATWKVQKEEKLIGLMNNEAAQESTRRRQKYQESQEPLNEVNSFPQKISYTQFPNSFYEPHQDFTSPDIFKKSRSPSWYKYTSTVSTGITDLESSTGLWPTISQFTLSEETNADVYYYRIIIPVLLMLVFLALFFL
Test [6] addresses TGF-beta receptor type-2 (Homo sapiens) (UniProt P37173). Kind of test: Selectivity interaction (KinomeScan (DiscoverX)) EUB0001619a TGFBR2. To be noted: at 1 µM.
Test [7] concerns the target T2, 3-phosphoinositide-dependent protein kinase 1 (Homo sapiens) (UniProt O15530).
T2 sequence (whole entry): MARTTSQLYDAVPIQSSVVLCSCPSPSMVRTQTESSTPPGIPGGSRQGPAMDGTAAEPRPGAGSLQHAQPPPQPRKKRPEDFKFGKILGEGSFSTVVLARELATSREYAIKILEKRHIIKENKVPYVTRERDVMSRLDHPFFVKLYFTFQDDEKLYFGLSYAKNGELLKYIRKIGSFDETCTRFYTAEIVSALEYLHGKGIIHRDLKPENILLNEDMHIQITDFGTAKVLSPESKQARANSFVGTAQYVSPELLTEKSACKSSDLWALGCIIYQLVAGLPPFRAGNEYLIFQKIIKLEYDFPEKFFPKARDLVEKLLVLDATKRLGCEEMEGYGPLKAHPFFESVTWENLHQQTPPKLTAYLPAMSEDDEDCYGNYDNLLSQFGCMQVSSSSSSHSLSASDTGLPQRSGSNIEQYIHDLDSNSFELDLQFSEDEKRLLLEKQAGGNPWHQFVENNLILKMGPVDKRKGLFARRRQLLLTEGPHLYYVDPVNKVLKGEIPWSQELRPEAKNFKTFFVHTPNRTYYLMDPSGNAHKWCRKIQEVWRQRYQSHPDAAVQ
Particulars: at 10 µM.

The target of test [8] is Tyrosine-protein kinase SYK (Homo sapiens, UniProt P43405). To be noted: at 10 µM.
The target of test [9] is Mitogen-activated protein kinase 9 (Homo sapiens, UniProt P45984). Kind of test: Selectivity interaction (Kinase screening (Upstate/Millipore)) EUB0000604a MAPK9.
The target in test [10] is T3, Testis-specific serine/threonine-protein kinase 1 (Homo sapiens) (UniProt Q9BXA7).
T3 sequence (whole entry): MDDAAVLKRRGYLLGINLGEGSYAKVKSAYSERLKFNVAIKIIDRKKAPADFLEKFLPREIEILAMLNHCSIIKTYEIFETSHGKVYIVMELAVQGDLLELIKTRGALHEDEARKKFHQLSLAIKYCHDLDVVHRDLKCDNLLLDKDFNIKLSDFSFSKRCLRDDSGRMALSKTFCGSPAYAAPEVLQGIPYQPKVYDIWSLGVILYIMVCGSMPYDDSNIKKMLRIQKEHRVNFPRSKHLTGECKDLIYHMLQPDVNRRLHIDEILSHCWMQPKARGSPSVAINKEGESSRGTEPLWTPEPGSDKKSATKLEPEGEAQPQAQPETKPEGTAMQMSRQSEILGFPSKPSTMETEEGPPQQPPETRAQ
Nature of the test: Selectivity interaction (KinomeScan (DiscoverX)) EUB0000045b TSSK1A.

The target in test [11] is Dual specificity mitogen-activated protein kinase kinase 2 (Homo sapiens) (UniProt P36507). Kind of test: Selectivity interaction (ProQinase) EUB0000171b MAP2K2.
Chain of Dual specificity mitogen-activated protein kinase kinase 2 (Homo sapiens) (P36507 whole entry): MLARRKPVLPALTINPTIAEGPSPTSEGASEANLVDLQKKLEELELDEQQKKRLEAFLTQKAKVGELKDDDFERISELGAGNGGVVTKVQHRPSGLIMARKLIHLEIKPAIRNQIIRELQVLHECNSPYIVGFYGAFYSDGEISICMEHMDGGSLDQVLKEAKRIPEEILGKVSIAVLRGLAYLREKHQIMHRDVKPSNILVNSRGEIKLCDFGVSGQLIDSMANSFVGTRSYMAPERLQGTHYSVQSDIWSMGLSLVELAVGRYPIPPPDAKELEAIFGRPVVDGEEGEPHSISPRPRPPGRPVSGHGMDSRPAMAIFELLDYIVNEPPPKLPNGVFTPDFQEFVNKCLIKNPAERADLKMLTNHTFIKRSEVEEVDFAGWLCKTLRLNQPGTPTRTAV
Test [12] concerns the target Phosphatidylinositol 4-phosphate 5-kinase type-1 gamma (Homo sapiens) (UniProt O60331). Kind of test: Selectivity interaction (KinomeScan (DiscoverX)) EUB0001049a PIP5K1C. Particulars: at 1 µM.
Test [13] in a line: Selectivity interaction (KinomeScan (DiscoverX)) EUB0000618a CDK2H. To be noted: at 10 µM.
For test [14], the target named is Mitogen-activated protein kinase kinase kinase kinase 5 (Homo sapiens) (UniProt Q9Y4K4). Nature of the test: Selectivity interaction (KinomeScan (DiscoverX)) EUB0001079a MAP4K5. Particulars: at 1 µM.
Test [15] addresses Serine/threonine-protein kinase MARK1 (Homo sapiens) (UniProt Q9P0L2). Kind of test: Selectivity interaction (KinomeScan (DiscoverX)) EUB0000229b MARK1. Particulars: at 10 µM.

Chain of Phosphatidylinositol 4-phosphate 5-kinase type-1 gamma (Homo sapiens) (O60331 whole entry): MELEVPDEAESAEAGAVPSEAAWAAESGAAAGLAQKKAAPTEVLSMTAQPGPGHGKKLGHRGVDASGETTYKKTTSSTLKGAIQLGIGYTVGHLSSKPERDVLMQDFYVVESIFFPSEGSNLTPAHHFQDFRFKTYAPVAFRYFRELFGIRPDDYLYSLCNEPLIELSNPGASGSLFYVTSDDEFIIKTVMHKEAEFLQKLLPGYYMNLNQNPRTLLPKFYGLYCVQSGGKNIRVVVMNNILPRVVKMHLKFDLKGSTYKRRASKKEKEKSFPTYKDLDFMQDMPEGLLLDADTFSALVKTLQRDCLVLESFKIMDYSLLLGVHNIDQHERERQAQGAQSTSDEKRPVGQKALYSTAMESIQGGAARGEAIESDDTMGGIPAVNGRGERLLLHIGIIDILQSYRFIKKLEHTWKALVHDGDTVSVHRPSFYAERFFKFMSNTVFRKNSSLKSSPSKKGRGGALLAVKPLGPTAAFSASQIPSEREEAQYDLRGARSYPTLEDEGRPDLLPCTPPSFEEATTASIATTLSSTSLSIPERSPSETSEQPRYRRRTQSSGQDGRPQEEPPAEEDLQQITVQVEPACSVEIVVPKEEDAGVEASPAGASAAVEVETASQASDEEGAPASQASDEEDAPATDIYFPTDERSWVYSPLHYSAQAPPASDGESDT
Chain of Serine/threonine-protein kinase MARK1 (Homo sapiens) (Q9P0L2 whole entry, looked up): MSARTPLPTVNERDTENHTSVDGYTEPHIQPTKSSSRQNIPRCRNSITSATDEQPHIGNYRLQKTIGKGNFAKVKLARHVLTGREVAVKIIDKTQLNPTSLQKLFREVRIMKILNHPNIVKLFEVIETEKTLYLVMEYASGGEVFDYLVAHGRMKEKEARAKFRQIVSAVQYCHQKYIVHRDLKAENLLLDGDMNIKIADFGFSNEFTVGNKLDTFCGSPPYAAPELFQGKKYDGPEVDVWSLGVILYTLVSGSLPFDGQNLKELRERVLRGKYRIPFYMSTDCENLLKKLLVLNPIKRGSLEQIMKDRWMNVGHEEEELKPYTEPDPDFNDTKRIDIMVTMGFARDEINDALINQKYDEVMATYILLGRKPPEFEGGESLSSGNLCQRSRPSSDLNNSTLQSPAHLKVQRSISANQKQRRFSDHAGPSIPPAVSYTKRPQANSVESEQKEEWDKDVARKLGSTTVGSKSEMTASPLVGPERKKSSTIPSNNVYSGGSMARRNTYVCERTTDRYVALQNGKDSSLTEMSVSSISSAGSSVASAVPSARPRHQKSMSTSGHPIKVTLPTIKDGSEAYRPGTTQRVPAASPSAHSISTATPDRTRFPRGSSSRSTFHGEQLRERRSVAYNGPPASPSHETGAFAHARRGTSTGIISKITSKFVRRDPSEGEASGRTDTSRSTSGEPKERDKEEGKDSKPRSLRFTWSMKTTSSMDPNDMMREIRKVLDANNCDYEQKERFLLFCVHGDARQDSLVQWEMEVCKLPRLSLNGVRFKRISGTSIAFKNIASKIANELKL

In test [1], `CN1CCN(C(=O)c2ccc3cc2OCCOCCNc2ccn4ncc-3c4n2)CC1` displayed a dTM of 4.2 K.
Take `Cn1cc(-n2cnc3c(NCc4nc5cc(Cl)c(Cl)cc5[nH]4)nc(N4CCOCC4)nc32)cn1`: the % of control in test [2] was determined as 9.97%; in test [3], 3.04%.
Take `COCCN1CCC(c2cc(CN(C)C(=O)c3cccc(Oc4ccccc4)c3)ccn2)CC1`: the % activity is above 95% in [4] (at 1 µM) and above 90% in test [4] (at 10 µM).
In the case of `N#Cc1cccc(-c2c[nH]c3ncnc(N4CCOCC4)c23)c1`, the % of control in test [5] and in test [6] was 100% each time.
Consider `Cc1cc([C@@H](C)Nc2ccccc2C(=O)O)c2nc(N3CCOCC3)cc(=O)n2c1` [AZD-6482], for which the % of control in [7] and in test [8] was 100% each time.
`Cc1cnc(Nc2ccc(F)cc2Cl)nc1-c1c[nH]c(C(=O)N[C@H](CO)c2cccc(Cl)c2)c1` had a % of inhibition in test [9] of 43%.
As for `C=CC(=O)Nc1cc(-n2c(=O)ccc3cnc4ccc(-c5ccc(NS(C)(=O)=O)cc5)cc4c32)ccc1C`, the % of control in test [10] (at 1 µM) was 100%; in test [10] (at 10 µM), 74%.
`C=CC(=O)Nc1cccc(C(=O)Nc2ccc(Nc3cc(-c4[nH]c(SC)nc4C)ccn3)cc2)c1`: the values for the % of control in test [11] (at 1 µM) and in test [11] (at 5 µM) were 76% and 36%, respectively.
In the case of `COc1cc(Nc2nc(C)cc(-c3cnn4nc(OC)ccc34)n2)cc(C(F)(F)F)c1`, the % of control in [12] came to 94%.
For `O[C@H]1CC[C@H](Nc2ncc3nc(Nc4c(F)cc(F)cc4F)n([C@H]4CCOC4)c3n2)CC1`, the % of control in test [13] stood at 100%.
In test [14], `Nc1cnc(N2CCc3cc(S(=O)(=O)Nc4c(F)cc(Cl)cc4F)cc(N4CCCC4=O)c32)nc1` [TP-020n] came in with a % of control of 73%.
In test [15], `COc1cc(N(C)c2ccnc3ccc(C(F)(F)F)cc23)cc(OC)c1OC` had a % binding of 98%.
